The values below come from patent US5162318A, “Benzimidazolinone derivatives” (Yamanouchi Pharmaceutical Co., Ltd., priority 1990, dated 1992).

Structures can show the parent of a compound that is named as a salt.

The test system of assay [1] is pulmonary surfactant secretion. Briefly: Stimulatory effect on pulmonary surfactant secretion (disaturated phosphatidylcholine in bronchoalveolar lavage fluid). It is filed as in vivo, guinea pig (male Hartley). As to conditions: guinea pigs; for Pharmacological activity: % increase of disaturated phosphatidylcholine (DSPC) compared to control values: 50 mg/kg i.p. once, lavage 3 hours later, number of animals in parentheses, * significantly different from control values (p < 0.05), Compounds A and B not marked *; for stimulation of pulmonary surfactant secretion (in words): conclusion from Table 1, 50 mg/kg i.p. As for the experimental part: The stimulatory effect of the compound of the present invention on pulmonary surfactant secretion In the experiment, male Hartley guinea pigs weighing 300-350 g were used. Methods 50 mg/kg of the test compound was intraperitoneally administered to guinea pigs once. Three hours later, the animals were anesthetized with 100 mg/kg of pentobarbital sodium and sacrificed by bleeding from the abdominal aorta and vena cava. Then, bronchoalveolar lavage with 10 ml/kg of ice-cooled physiological saline was performed twice. The combined bronchoalveolar lavage fluid was centrifuged at 1,000 rpm for 10 minutes at 4° C. From the supernatant of bronchoalveolar lavage fluid, the lipid was extracted in accordance with the method of Folch et al. (Journal of Biological Chemistry, 226, 497-502, 1957). The characteristic component of pulmonary surfactant, i.e., disaturated phosphatidylcholine was extracted by the method of Gilfillan et al. (Journal of Lipid Research, 24, 1651- 1656, 1983). The disaturated phosphatidylcholine was assayed with Nescoat PL Kit-K (Nippon Shoji Co., Ltd.) and the percent increase compared to a control group was determined (M. Takayama, et al.: Clin. Chim. Acta, 79, 93-98, 1977).

For assay [2], the system named is secretion of the endogenous pulmonary surfactant. As to conditions: Post et al.: Lung 161, 349-359, 1983; cited from earlier work.

Consider `CN(C)CCn1c(=O)[nH]c2ccc(Br)cc21.Cl` [3(5), 6-Bromo-1,3-dihydro-1-(2-dimethylaminoethyl)-2H-benzimidazol-2-one hydrochloride], for which, in assay [1], the “Pharmacological activity: % increase of disaturated phosphatidylcholine (DSPC) compared to control values” (shortened to “Pharmacological activity: % increase”) is 27.9 ± 6.2%.
As for `CN(C)CCn1c(=O)[nH]c2c(Br)cc(Br)cc21.Cl` [4(3), 4,6-Dibromo-1,3-dihydro-1-(2-dimethylaminoethyl)-2H-benzimidazol-2-one hydrochloride], the “Pharmacological activity: % increase” value in assay [1] came to 32.3 ± 7.0%.
On the same count and under the same terms, the figure for `CN(C)CCn1c(=O)[nH]c2ccc(Cl)cc21.Cl` [11(4), 6-Chloro-1,3-dihydro-1-(2-dimethylaminoethyl)-2H-benzimidazol-2-one hydrochloride] is 37.8 ± 13.2%; for `Cl.O=c1[nH]c2ccc(Cl)cc2n1CCN1CCCC1` [19(4), 6-Chloro-1,3-dihydro-1-[2-(1-pyrrolidinyl)ethyl]-2H-benzimidazol-2-one hydrochloride] it is 33.1 ± 8.3%.
With `CN(C)CCCn1c(=O)[nH]c2ccccc21` [Compound A, 1,3Dihydro-1-(3-dimethylaminopropyl)-2H-benzimidazol-2-one], in assay [1], the “stimulation of pulmonary surfactant secretion (in words)” value is recorded as “do not stimulate secretion of pulmonary surfactant but rather tend to decrease the secretion” and the “Pharmacological activity: % increase” value is listed as -9.3%.
Taken in the same sequence, the figures for `CCN(CC)CCn1c(=O)[nH]c2ccccc21` [Compound B, 1,3Dihydro-1-(2-diethylaminoethyl)-2H-benzimidazol-2-one] were “do not stimulate secretion of pulmonary surfactant but rather tend to decrease the secretion” and -20.7%.
As for `CN(C)CCn1c(=O)[nH]c2ccccc21.Cl` [Example 12(5), 1,3-dihydro-1-(2-dimethylaminoethyl)-2H-benzimidazol-2-one hydrochloride], the “Pharmacological activity: % increase” value in assay [1] stood at 27.4 ± 4.9%.
Take `Nc1c(Br)cc(Br)cc1CN[C@H]1CC[C@H](O)CC1` [ambroxol hydrochloride]: in assay [2], the “activity to promote secretion of the endogenous pulmonary surfactant (in words)” value is on record as “only substance known to have such activity”.
